Data from ChEMBL document CHEMBL5291721, “A preclinical secondary pharmacology resource illuminates target-adverse drug reaction associations of marketed drugs” (Nat Commun, 2023).

Columns and labels:
Adenosine receptor A1 = target: T1, Adenosine receptor A1 (Homo sapiens, UniProt P30542)
T1 sequence (P30542 whole entry): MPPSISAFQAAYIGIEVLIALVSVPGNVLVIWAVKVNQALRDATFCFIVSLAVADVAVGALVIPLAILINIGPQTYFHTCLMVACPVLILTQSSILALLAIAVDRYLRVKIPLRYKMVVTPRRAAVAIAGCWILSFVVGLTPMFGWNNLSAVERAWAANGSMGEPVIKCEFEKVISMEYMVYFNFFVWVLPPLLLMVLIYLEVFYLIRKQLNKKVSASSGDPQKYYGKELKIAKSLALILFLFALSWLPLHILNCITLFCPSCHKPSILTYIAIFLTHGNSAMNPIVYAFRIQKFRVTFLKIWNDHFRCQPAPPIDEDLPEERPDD

Adenosine receptor A3 = target: T2, Adenosine receptor A3 (Homo sapiens, UniProt P0DMS8)
T2 sequence (P0DMS8 whole entry): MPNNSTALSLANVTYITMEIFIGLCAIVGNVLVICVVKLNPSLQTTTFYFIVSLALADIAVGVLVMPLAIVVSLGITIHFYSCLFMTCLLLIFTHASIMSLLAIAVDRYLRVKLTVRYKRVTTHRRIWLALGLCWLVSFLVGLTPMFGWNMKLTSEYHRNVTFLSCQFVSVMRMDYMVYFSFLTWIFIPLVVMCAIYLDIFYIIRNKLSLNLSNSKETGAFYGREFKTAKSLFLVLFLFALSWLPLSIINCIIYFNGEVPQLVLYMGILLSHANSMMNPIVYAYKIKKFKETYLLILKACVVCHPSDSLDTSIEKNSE

[1] = target: T3, Alpha-2C adrenergic receptor (Homo sapiens, UniProt P18825); format: functional
T3 sequence (P18825 whole entry): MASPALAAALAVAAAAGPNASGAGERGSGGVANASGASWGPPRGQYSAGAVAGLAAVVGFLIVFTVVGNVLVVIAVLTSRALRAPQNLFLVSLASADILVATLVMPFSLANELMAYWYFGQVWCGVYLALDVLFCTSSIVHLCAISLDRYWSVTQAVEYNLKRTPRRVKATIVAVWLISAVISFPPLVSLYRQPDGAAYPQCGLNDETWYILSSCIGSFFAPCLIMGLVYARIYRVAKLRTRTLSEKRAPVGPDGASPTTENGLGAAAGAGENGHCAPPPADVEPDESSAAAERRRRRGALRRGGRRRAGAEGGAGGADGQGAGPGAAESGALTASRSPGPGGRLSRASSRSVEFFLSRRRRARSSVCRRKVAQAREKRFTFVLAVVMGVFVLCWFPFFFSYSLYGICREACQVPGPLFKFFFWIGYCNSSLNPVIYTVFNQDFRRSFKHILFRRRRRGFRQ

[2] = target: T4, Muscarinic acetylcholine receptor M1 (Homo sapiens, UniProt P11229); format: functional, cell-based
T4 sequence (P11229 whole entry): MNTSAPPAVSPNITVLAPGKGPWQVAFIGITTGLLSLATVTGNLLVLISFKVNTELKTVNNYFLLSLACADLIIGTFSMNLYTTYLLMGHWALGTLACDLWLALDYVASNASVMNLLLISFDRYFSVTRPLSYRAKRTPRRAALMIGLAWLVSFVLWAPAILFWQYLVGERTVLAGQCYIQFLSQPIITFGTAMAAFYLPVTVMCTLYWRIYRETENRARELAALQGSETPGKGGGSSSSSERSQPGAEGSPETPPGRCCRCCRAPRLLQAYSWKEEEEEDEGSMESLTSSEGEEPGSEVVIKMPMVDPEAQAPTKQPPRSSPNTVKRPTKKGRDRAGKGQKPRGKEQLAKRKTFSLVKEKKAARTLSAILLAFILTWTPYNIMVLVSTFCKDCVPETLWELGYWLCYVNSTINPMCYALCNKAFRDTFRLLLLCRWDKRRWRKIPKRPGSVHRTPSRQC

[3] = target: Neuronal acetylcholine receptor subunit alpha-4 (Homo sapiens, UniProt P43681)
Neuronal acetylcholine receptor subunit alpha-4, sequence (P43681 whole entry): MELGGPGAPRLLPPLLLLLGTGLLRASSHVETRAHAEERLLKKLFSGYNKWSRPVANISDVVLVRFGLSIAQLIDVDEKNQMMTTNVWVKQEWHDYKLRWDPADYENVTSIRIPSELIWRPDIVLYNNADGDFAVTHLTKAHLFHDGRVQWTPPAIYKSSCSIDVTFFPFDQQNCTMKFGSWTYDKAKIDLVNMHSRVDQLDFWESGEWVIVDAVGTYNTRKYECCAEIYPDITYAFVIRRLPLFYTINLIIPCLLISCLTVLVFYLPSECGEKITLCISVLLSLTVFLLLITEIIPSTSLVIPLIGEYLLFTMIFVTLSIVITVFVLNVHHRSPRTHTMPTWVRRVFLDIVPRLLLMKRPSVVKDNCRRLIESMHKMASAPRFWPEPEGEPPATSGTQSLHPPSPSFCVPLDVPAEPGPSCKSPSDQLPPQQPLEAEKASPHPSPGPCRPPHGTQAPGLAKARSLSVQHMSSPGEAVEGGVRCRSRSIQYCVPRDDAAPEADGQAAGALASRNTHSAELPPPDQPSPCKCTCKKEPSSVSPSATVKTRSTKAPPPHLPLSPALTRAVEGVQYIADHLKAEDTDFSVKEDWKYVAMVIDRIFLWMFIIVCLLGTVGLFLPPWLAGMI

[4] = target: Growth hormone secretagogue receptor type 1 (Homo sapiens, UniProt Q92847)
Growth hormone secretagogue receptor type 1, sequence (Q92847 whole entry): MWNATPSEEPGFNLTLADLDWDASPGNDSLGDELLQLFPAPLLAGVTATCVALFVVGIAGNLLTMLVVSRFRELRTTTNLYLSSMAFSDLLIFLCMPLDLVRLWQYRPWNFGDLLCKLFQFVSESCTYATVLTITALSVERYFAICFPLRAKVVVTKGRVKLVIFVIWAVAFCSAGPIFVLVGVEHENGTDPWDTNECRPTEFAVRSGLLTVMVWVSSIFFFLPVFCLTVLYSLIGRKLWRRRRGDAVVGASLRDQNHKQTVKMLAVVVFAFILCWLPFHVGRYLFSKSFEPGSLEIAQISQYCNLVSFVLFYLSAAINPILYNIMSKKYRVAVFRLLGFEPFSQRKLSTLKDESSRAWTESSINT

[5] = target: T5, 5-hydroxytryptamine receptor 2C (Homo sapiens, UniProt P28335)
T5 sequence (P28335 whole entry): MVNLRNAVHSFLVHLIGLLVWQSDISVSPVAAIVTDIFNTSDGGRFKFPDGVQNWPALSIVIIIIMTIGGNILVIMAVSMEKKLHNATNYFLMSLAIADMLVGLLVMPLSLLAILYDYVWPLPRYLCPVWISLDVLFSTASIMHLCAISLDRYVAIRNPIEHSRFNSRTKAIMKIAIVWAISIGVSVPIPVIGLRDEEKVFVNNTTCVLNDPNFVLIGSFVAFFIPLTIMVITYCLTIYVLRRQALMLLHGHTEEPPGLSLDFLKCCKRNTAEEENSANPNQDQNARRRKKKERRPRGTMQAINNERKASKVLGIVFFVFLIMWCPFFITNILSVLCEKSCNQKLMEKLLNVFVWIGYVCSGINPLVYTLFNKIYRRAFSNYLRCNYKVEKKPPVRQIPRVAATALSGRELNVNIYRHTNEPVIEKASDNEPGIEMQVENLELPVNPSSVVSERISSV

Melanocortin receptor 3 = Melanocortin receptor 3 (Homo sapiens, UniProt P41968)
Melanocortin receptor 3, sequence (P41968 whole entry): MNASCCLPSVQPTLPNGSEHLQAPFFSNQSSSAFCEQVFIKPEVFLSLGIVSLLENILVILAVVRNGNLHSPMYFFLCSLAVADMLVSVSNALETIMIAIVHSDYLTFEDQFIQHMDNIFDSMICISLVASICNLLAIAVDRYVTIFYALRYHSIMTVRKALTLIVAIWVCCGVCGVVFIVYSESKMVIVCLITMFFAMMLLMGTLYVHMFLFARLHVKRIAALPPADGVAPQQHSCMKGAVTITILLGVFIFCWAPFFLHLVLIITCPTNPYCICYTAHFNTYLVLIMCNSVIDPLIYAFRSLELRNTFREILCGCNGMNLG

Motilin receptor = Motilin receptor (Homo sapiens, UniProt O43193)
Motilin receptor, sequence (O43193 whole entry): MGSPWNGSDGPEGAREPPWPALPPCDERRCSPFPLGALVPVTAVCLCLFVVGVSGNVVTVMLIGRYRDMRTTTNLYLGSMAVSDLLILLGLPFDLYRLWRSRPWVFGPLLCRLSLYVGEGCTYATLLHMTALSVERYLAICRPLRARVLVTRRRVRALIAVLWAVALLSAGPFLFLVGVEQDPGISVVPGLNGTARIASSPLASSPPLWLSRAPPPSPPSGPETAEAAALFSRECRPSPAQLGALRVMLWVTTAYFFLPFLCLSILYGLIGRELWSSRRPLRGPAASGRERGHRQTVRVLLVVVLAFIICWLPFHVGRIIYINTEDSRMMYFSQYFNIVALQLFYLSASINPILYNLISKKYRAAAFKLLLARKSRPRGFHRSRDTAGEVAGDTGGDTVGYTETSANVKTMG

Thromboxane A2 receptor = target: T6, Thromboxane A2 receptor (Homo sapiens, UniProt P21731)
T6 sequence (P21731 whole entry): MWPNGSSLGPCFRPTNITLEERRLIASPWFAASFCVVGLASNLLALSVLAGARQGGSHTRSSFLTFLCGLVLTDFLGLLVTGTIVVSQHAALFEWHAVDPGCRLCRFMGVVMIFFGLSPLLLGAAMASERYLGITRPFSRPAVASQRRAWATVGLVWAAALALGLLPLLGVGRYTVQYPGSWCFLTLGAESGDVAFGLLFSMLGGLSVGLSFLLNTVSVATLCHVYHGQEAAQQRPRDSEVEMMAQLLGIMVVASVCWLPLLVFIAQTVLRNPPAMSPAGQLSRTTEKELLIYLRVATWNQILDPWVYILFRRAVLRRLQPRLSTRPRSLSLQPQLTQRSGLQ

[6] = target: Sodium-dependent dopamine transporter (Homo sapiens, UniProt Q01959)
Sodium-dependent dopamine transporter, sequence (Q01959 whole entry): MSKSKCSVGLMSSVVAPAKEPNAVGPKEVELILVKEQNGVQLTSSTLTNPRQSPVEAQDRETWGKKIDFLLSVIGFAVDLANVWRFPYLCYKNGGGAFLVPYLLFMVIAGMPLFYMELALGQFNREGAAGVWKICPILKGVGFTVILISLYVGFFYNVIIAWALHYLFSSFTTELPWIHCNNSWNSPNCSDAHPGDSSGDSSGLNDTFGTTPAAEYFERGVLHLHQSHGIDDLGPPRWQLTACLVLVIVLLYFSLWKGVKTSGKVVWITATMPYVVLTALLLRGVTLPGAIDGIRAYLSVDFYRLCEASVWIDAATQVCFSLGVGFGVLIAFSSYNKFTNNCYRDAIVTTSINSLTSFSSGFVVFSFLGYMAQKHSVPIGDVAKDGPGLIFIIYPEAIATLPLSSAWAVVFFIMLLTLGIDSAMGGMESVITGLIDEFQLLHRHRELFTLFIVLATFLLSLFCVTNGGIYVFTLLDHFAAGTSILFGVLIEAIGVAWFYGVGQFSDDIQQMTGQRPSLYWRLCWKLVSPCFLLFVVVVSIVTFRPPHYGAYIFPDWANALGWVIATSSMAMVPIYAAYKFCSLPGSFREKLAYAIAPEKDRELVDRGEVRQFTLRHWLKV

[7] = target: Delta-type opioid receptor (Homo sapiens, UniProt P41143)
Delta-type opioid receptor, sequence (P41143 whole entry): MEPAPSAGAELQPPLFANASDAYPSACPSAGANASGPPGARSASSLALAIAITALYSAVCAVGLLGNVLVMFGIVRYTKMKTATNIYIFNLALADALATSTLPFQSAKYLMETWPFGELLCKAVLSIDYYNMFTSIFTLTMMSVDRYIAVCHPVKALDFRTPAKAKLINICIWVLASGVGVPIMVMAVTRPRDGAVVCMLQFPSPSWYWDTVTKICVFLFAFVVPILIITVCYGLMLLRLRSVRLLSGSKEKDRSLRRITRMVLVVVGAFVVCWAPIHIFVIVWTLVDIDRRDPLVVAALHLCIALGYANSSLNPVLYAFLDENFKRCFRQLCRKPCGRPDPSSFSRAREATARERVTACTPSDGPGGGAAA
Further: assay procedure not described here.

SMILES: CCCc1nc2c(C)cc(-c3nc4ccccc4n3C)cc2n1Cc1ccc(-c2ccccc2C(=O)O)cc1
- AC50 (Adenosine receptor A1): > 30 µM
- AC50 (Adenosine receptor A3): 18.3 µM
- AC50 [1]: 12.5 µM
- AC50 [2]: 17.6 µM
- AC50 [3]: > 30 µM
- AC50 [4]: > 30 µM
- AC50 [5]: > 30 µM
- AC50 (Melanocortin receptor 3): > 30 µM
- AC50 (Motilin receptor): > 30 µM
- AC50 (Thromboxane A2 receptor): 18.1 µM
- AC50 [6]: > 30 µM

SMILES: C[N+](C)(C)CCOP(=O)(O)OP(=O)([O-])OC[C@H]1O[C@@H](n2ccc(N)nc2=O)[C@H](O)[C@@H]1O [CITICOLINE]
- AC50 [1]: > 30 µM
- AC50 [2]: > 30 µM
- AC50 [5]: > 30 µM
- AC50 [7]: > 30 µM

SMILES: O=C(O)Cc1ccccc1Oc1ccc(Cl)cc1Cl [FENCLOFENAC]
- AC50 (Adenosine receptor A1): > 30 µM
- AC50 (Adenosine receptor A3): > 30 µM
- AC50 [1]: > 10 µM
- AC50 [2]: > 30 µM
- AC50 [3]: > 10 µM
- AC50 [4]: > 30 µM
- AC50 [5]: > 30 µM
- AC50 (Melanocortin receptor 3): > 30 µM
- AC50 (Motilin receptor): > 10 µM
- AC50 [7]: > 30 µM
- AC50 (Thromboxane A2 receptor): > 30 µM
- AC50 [6]: > 10 µM

SMILES: COc1ccccc1OC1(C)OC(=O)c2ccccc2O1 (configuration not stated) [GUAIMESAL]
- AC50 (Adenosine receptor A1): > 30 µM
- AC50 (Adenosine receptor A3): > 30 µM
- AC50 [2]: > 30 µM
- AC50 [3]: > 30 µM
- AC50 [4]: > 30 µM
- AC50 (Melanocortin receptor 3): > 30 µM
- AC50 (Motilin receptor): > 30 µM
- AC50 (Thromboxane A2 receptor): > 30 µM
- AC50 [6]: > 30 µM

SMILES: C[N+](C)(CCCCCC[N+](C)(C)C1c2ccccc2-c2ccccc21)C1c2ccccc2-c2ccccc21 [HEXAFLUORENIUM]
- AC50 [2]: > 30 µM

SMILES: CCCCC(CC)CN1CN(CC(CC)CCCC)CC(C)(N)C1 (configuration not stated) [HEXETIDINE]
- AC50 [2]: > 30 µM

SMILES: Cc1cc(=O)oc2cc(O)ccc12 [HYMECROMONE]
- AC50 [2]: > 30 µM

SMILES: COc1cc(C(C)=O)ccc1OCCCN1CCC(c2noc3cc(F)ccc23)CC1 [ILOPERIDONE]
- AC50 (Adenosine receptor A1): > 30 µM
- AC50 (Adenosine receptor A3): > 30 µM
- AC50 [1]: 0.018 µM
- AC50 [2]: > 10 µM
- AC50 [3]: 2 µM
- AC50 [4]: > 30 µM
- AC50 [5]: 0.803 µM
- AC50 (Melanocortin receptor 3): > 30 µM
- AC50 (Motilin receptor): > 30 µM
- AC50 [7]: > 30 µM
- AC50 [6]: 5.95 µM

SMILES: COc1c2occc2c(OC)c2c(=O)cc(C)oc12 [KHELLIN]
- AC50 [2]: > 30 µM

SMILES: CC(C)[C@@H]1CC[C@@H](C)C[C@H]1O [LEVOMENTHOL]
- AC50 [2]: > 30 µM

SMILES: COC(=O)[C@@H](N)Cc1ccc(O)c(O)c1 [MELEVODOPA]
- AC50 [2]: > 30 µM

SMILES: C[N+]1(C)CCCC(OC(=O)C(O)(c2ccccc2)c2ccccc2)C1 (configuration not stated) [MEPENZOLATE]
- AC50 [2]: > 30 µM

SMILES: C=N[C@@H](C(=O)N[C@@H]1C(=O)N2[C@@H]1SC(C)(C)[C@@H]2C(=O)O)c1ccccc1 [METAMPICILLIN]
- AC50 [2]: > 30 µM

SMILES: O=C(NNCS(=O)(=O)O)c1ccncc1 [METHANIAZIDE]
- AC50 [2]: > 30 µM

SMILES: Cc1cc(=O)[nH]c(=S)[nH]1 [METHYLTHIOURACIL]
- AC50 [2]: > 30 µM

SMILES: CN(C)c1ccc(O)c2c1C[C@H]1C[C@H]3[C@H](N(C)C)C(O)=C(C(N)=O)C(=O)[C@@]3(O)C(O)=C1C2=O [MINOCYCLINE]
- AC50 [2]: > 30 µM

SMILES: CCNC(=O)/C=C(C)/C=C/C=C(C)/C=C/c1c(C)cc(OC)c(C)c1C [MOTRETINIDE]
- AC50 [2]: > 30 µM

SMILES: C=CC(=O)Nc1cccc(Oc2nc(Nc3ccc(N4CCN(C)CC4)cc3)nc3ccsc23)c1 [OLMUTINIB]
- AC50 [2]: > 30 µM

SMILES: CCCCC1C(=O)N(c2ccccc2)N(c2ccc(O)cc2)C1=O (configuration not stated) [OXYPHENBUTAZONE ANHYDROUS]
- AC50 [2]: > 30 µM

SMILES: O=C(O)CN(CCN(CC(=O)O)CC(=O)O)CCN(CC(=O)O)CC(=O)O [PENTETIC ACID]
- AC50 [2]: > 30 µM

SMILES: Nc1cccc2c1C(=O)N(C1CCC(=O)NC1=O)C2=O (configuration not stated) [POMALIDOMIDE]
- AC50 [2]: > 30 µM

SMILES: C[Se]CC[C@H](N)C(=O)O [SELENOMETHIONINE]
- AC50 [2]: > 30 µM

SMILES: Cc1ccsc1C(=CCCN1CCC[C@@H](C(=O)O)C1)c1sccc1C [TIAGABINE]
- AC50 [2]: > 30 µM

SMILES: Cc1ccccc1C(=O)Nc1ccc(C(=O)N2CCCC(O)c3cc(Cl)ccc32)c(C)c1 (configuration not stated) [TOLVAPTAN]
- AC50 [2]: > 30 µM

SMILES: CC[C@]12CCCN3CCc4c(n(c5ccccc45)[C@@](O)(C(=O)OC)C1)[C@@H]32 [VINCAMINE]
- AC50 [2]: > 30 µM

SMILES: O=C1Cc2cc(CCN3CCN(c4nsc5ccccc45)CC3)c(Cl)cc2N1 [ZIPRASIDONE]
- AC50 (Adenosine receptor A1): > 30 µM
- AC50 (Adenosine receptor A3): > 30 µM
- AC50 [2]: > 30 µM
- AC50 [3]: > 10 µM
- AC50 [4]: > 30 µM
- AC50 (Melanocortin receptor 3): > 30 µM
- AC50 (Motilin receptor): > 10 µM
- AC50 [7]: > 30 µM
- AC50 (Thromboxane A2 receptor): > 30 µM
- AC50 [6]: 5.11 µM
